From the supplement of paper PMC6045584
± gives the standard deviation of the averaged measurements.

Legend:
[1] = compound: O=C(O)CC[C@H]1CC[C@@](c2cc(F)ccc2F)(S(=O)(=O)c2ccc(Cl)cc2)CC1 [MK0752]; experiment: surviving fraction relative to DMSO-only wells; higher = less growth inhibition; conditions: exposure time: 5 days
Summary of the method: (§1)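 After seeding at 250–500 cells per well in 384-well plates and a 24-hour wait, log-phase tumour cell lines were exposed without interruption for five days to inhibitors at 0.5, 1, 5, 10, 50, 100, 500 and 1000 nM. CellTiter-Glo luminescence was recorded after 10 minutes at room temperature. Viability is reported as surviving fraction, the luminescence normalised to the median of DMSO-only wells.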

[2] = compound: T1, CCN(CC)CCNC(=O)c1c(C)[nH]c(/C=C2\C(=O)Nc3ccc(F)cc32)c1C [SUNITINIB]; experiment: as above; conditions: exposure time: 5 days
Summary of the method: as §1

[3] = compound: T2, CCC1=C[C@@H]2CN(C1)Cc1c([nH]c3ccccc13)[C@@](C(=O)OC)(c1cc3c(cc1OC)N(C)[C@H]1[C@@](O)(C(=O)OC)[C@H](OC(C)=O)[C@]4(CC)C=CCN5CC[C@]31[C@@H]54)C2 [VINORELBINE]; experiment: as above; conditions: exposure time: 5 days
Summary of the method: as §1

[4] = compound: T3, COc1cc([C@@H]2c3cc4c(cc3[C@@H](O[C@@H]3O[C@@H]5CO[C@@H](C)O[C@H]5[C@H](O)[C@H]3O)[C@H]3COC(=O)[C@H]23)OCO4)cc(OC)c1O [ETOPOSIDE]; experiment: as above; conditions: exposure time: 5 days
Summary of the method: as §1

[5] = compound: O=C(NOCC1CC1)c1ccc(F)c(F)c1Nc1ccc(I)cc1Cl; experiment: as above; conditions: exposure time: 5 days
Summary of the method: as §1

[6] = compound: T4, C#Cc1cccc(Nc2ncnc3cc(OCCOC)c(OCCOC)cc23)c1 [ERLOTINIB]; experiment: as above; conditions: exposure time: 5 days
Summary of the method: as §1

[7] = compound: T5, CO[C@H]1C[C@@H]2CC[C@@H](C)[C@@](O)(O2)C(=O)C(=O)N2CCCC[C@H]2C(=O)O[C@H]([C@H](C)C[C@@H]2CC[C@@H](OCCO)[C@H](OC)C2)CC(=O)[C@H](C)/C=C(\C)[C@@H](O)[C@@H](OC)C(=O)[C@H](C)C[C@H](C)/C=C/C=C/C=C/1C [EVEROLIMUS]; experiment: as above; conditions: exposure time: 5 days
Summary of the method: as §1

[8] = compound: Cc1nc(Nc2n[nH]c3c2CN(C(=O)N[C@H](CN(C)C)c2ccccc2)C3(C)C)c2sccc2n1; experiment: as above; conditions: exposure time: 5 days
Summary of the method: as §1

[9] = compound: T6, COc1cc(CCc2cc(NC(=O)c3ccc(N4CC(C)NC(C)C4)cc3)n[nH]2)cc(OC)c1 [AZD4547]; experiment: as above; conditions: exposure time: 5 days
Summary of the method: as §1

[10] = compound: T7, CCCS(=O)(=O)Nc1ccc(F)c(C(=O)c2c[nH]c3ncc(Cl)cc23)c1F [PLX-4720]; experiment: as above; conditions: exposure time: 5 days
Summary of the method: as §1

[11] = compound: T8, NC1(c2ccc(-c3nc4ccn5c(=O)[nH]nc5c4cc3-c3ccccc3)cc2)CCC1 [MK2206]; experiment: as above; conditions: exposure time: 5 days
Summary of the method: as §1

[12] = compound: T9, CN(Cc1cnc2nc(N)nc(N)c2n1)c1ccc(C(=O)N[C@@H](CCC(=O)O)C(=O)O)cc1 [METHOTREXATE]; experiment: as above; conditions: exposure time: 5 days
Summary of the method: as §1

[13] = compound: T1, SUNITINIB; experiment: area under dose-response curve of surviving fraction (unscaled, Aref=0) (surviving fraction x log10(nM)); higher = more resistant; conditions: exposure time: 5 days; dose range 0.5-1000 nM
Summary of the method: (§2)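 Three screens per tumour cell line were run in 384-well plates at eight inhibitor concentrations from 0.5 to 1000 nM over five days. Surviving fractions, from CellTiter-Glo luminescence normalised to DMSO-only wells, were fitted with 3-parameter logistic curves in the drc R package. The reported area under the curve is the unscaled activity area. It spans log10 dose, and Aref is 0.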

[14] = compound: T2, VINORELBINE; experiment: as above; conditions: exposure time: 5 days; dose range 0.5-1000 nM
Summary of the method: as §2

[15] = compound: T3, ETOPOSIDE; experiment: as above; conditions: exposure time: 5 days; dose range 0.5-1000 nM
Summary of the method: as §2

[16] = compound: O=C(NOCC1CC1)c1ccc(F)c(F)c1Nc1ccc(I)cc1Cl; experiment: as above; conditions: exposure time: 5 days; dose range 0.5-1000 nM
Summary of the method: as §2

[17] = compound: T4, ERLOTINIB; experiment: as above; conditions: exposure time: 5 days; dose range 0.5-1000 nM
Summary of the method: as §2

[18] = compound: T5, EVEROLIMUS; experiment: as above; conditions: exposure time: 5 days; dose range 0.5-1000 nM
Summary of the method: as §2

[19] = compound: Cc1nc(Nc2n[nH]c3c2CN(C(=O)N[C@H](CN(C)C)c2ccccc2)C3(C)C)c2sccc2n1; experiment: as above; conditions: exposure time: 5 days; dose range 0.5-1000 nM
Summary of the method: as §2

[20] = compound: T6, AZD4547; experiment: as above; conditions: exposure time: 5 days; dose range 0.5-1000 nM
Summary of the method: as §2

[21] = compound: T7, PLX-4720; experiment: as above; conditions: exposure time: 5 days; dose range 0.5-1000 nM
Summary of the method: as §2

[22] = compound: T8, MK2206; experiment: as above; conditions: exposure time: 5 days; dose range 0.5-1000 nM
Summary of the method: as §2

[23] = compound: T9, METHOTREXATE; experiment: as above; conditions: exposure time: 5 days; dose range 0.5-1000 nM
Summary of the method: as §2

[24] = compound: Nc1ccn([C@@H]2O[C@H](CO)[C@@H](O)C2(F)F)c(=O)n1 [GEMCITABINE]; experiment: as above; conditions: exposure time: 5 days; dose range 0.5-1000 nM
Summary of the method: as §2

## HS57T BREAST
[1]; 0.5 nM
  surviving fraction: 1.09 ± 0.048
[1]; 1 nM
  surviving fraction: 1.09 ± 0.059
[1]; 5 nM
  surviving fraction: 1.18 ± 0.061
[1]; 10 nM
  surviving fraction: 1.14 ± 0.1
[1]; 50 nM
  surviving fraction: 1.13 ± 0.048
[1]; 100 nM
  surviving fraction: 1.19 ± 0.077
[1]; 500 nM
  surviving fraction: 1.02 ± 0.038
[1]; 1000 nM
  surviving fraction: 1.01 ± 0.046
[2]; 0.5 nM
  surviving fraction: 0.9 ± 0.077
[2]; 1 nM
  surviving fraction: 0.867 ± 0.027
[2]; 10 nM
  surviving fraction: 0.919 ± 0.095
[2]; 100 nM
  surviving fraction: 0.863 ± 0.011
[2]; 500 nM
  surviving fraction: 0.572 ± 0.035
[2]; 1000 nM
  surviving fraction: 0.406 ± 0.027
[3]; 0.5 nM
  surviving fraction: 1.01 ± 0.08
[3]; 1 nM
  surviving fraction: 0.957 ± 0.03
[3]; 5 nM
  surviving fraction: 0.682 ± 0.0066
[3]; 10 nM
  surviving fraction: 0.118 ± 0.011
[3]; 50 nM
  surviving fraction: 0.07 ± 0.002
[3]; 100 nM
  surviving fraction: 0.0703 ± 0.013
[3]; 500 nM
  surviving fraction: 0.0633 ± 0.0096
[3]; 1000 nM
  surviving fraction: 0.0723 ± 0.0084
[4]; 0.5 nM
  surviving fraction: 1.02 ± 0.016
[4]; 1 nM
  surviving fraction: 0.967 ± 0.049
[4]; 5 nM
  surviving fraction: 1.01 ± 0.02
[4]; 10 nM
  surviving fraction: 1.06 ± 0.069
[4]; 50 nM
  surviving fraction: 1.09 ± 0.055
[4]; 100 nM
  surviving fraction: 0.909 ± 0.06
[4]; 500 nM
  surviving fraction: 0.409 ± 0.048
[4]; 1000 nM
  surviving fraction: 0.288 ± 0.017
[5]; 0.5 nM
  surviving fraction: 0.909 ± 0.02
[5]; 1 nM
  surviving fraction: 0.945 ± 0.022
[5]; 5 nM
  surviving fraction: 0.933 ± 0.056
[5]; 10 nM
  surviving fraction: 0.965 ± 0.033
[5]; 50 nM
  surviving fraction: 0.824 ± 0.025
[5]; 100 nM
  surviving fraction: 0.815 ± 0.013
[5]; 500 nM
  surviving fraction: 0.676 ± 0.021
[5]; 1000 nM
  surviving fraction: 0.686 ± 0.019
[6]; 0.5 nM
  surviving fraction: 1.03 ± 0.086
[6]; 1 nM
  surviving fraction: 1.02 ± 0.071
[6]; 5 nM
  surviving fraction: 1.06 ± 0.046
[6]; 10 nM
  surviving fraction: 1.1 ± 0.052
[6]; 100 nM
  surviving fraction: 1.04 ± 0.074
[6]; 500 nM
  surviving fraction: 0.999 ± 0.046
[6]; 1000 nM
  surviving fraction: 0.971 ± 0.074
[7]; 0.5 nM
  surviving fraction: 0.614 ± 0.029
[7]; 1 nM
  surviving fraction: 0.535 ± 0.0078
[7]; 5 nM
  surviving fraction: 0.497 ± 0.031
[7]; 10 nM
  surviving fraction: 0.445 ± 0.016
[7]; 50 nM
  surviving fraction: 0.447 ± 0.024
[7]; 100 nM
  surviving fraction: 0.44 ± 0.042
[7]; 500 nM
  surviving fraction: 0.373 ± 0.024
[7]; 1000 nM
  surviving fraction: 0.387 ± 0.045
[8]; 0.5 nM
  surviving fraction: 0.895 ± 0.062
[8]; 1 nM
  surviving fraction: 0.685 ± 0.022
[8]; 5 nM
  surviving fraction: 0.366 ± 0.02
[8]; 10 nM
  surviving fraction: 0.305 ± 0.019
[8]; 50 nM
  surviving fraction: 0.287 ± 0.018
[8]; 100 nM
  surviving fraction: 0.255 ± 0.0075
[8]; 500 nM
  surviving fraction: 0.151 ± 0.02
[8]; 1000 nM
  surviving fraction: 0.0643 ± 0.0085
[9]; 0.5 nM
  surviving fraction: 1.02 ± 0.051
[9]; 1 nM
  surviving fraction: 1.01 ± 0.031
[9]; 5 nM
  surviving fraction: 0.938 ± 0.04
[9]; 10 nM
  surviving fraction: 0.829 ± 0.05
[9]; 50 nM
  surviving fraction: 0.687 ± 0.029
[9]; 100 nM
  surviving fraction: 0.744 ± 0.043
[9]; 500 nM
  surviving fraction: 0.679 ± 0.035
[9]; 1000 nM
  surviving fraction: 0.628 ± 0.045
[10]; 0.5 nM
  surviving fraction: 0.9 ± 0.06
[10]; 1 nM
  surviving fraction: 0.898 ± 0.057
[10]; 5 nM
  surviving fraction: 0.947 ± 0.069
[10]; 10 nM
  surviving fraction: 0.964 ± 0.065
[10]; 50 nM
  surviving fraction: 0.921 ± 0.059
[10]; 100 nM
  surviving fraction: 0.982 ± 0.03
[10]; 500 nM
  surviving fraction: 0.92 ± 0.019
[10]; 1000 nM
  surviving fraction: 0.962 ± 0.054
[11]; 0.5 nM
  surviving fraction: 0.979 ± 0.037
[11]; 1 nM
  surviving fraction: 1 ± 0.07
[11]; 5 nM
  surviving fraction: 1.02 ± 0.051
[11]; 10 nM
  surviving fraction: 1.07 ± 0.056
[11]; 50 nM
  surviving fraction: 0.962 ± 0.013
[11]; 100 nM
  surviving fraction: 0.938 ± 0.05
[11]; 500 nM
  surviving fraction: 0.747 ± 0.012
[11]; 1000 nM
  surviving fraction: 0.658 ± 0.092
[12]; 0.5 nM
  surviving fraction: 1 ± 0.11
[12]; 1 nM
  surviving fraction: 1.03 ± 0.075
[12]; 5 nM
  surviving fraction: 1.03 ± 0.032
[12]; 10 nM
  surviving fraction: 0.985 ± 0.12
[12]; 50 nM
  surviving fraction: 0.252 ± 0.025
[12]; 100 nM
  surviving fraction: 0.226 ± 0.013
[12]; 500 nM
  surviving fraction: 0.205 ± 0.018
[12]; 1000 nM
  surviving fraction: 0.214 ± 0.0081

## HS57T LUNG
[13]
  area under dose-response curve: 2.84
[14]
  area under dose-response curve: 1.21
[15]
  area under dose-response curve: 2.88
[16]
  area under dose-response curve: 2.83
[17]
  area under dose-response curve: 3.44
[18]
  area under dose-response curve: 1.54
[19]
  area under dose-response curve: 1.13
[20]
  area under dose-response curve: 2.66
[21]
  area under dose-response curve: 3.1
[22]
  area under dose-response curve: 3.09
[23]
  area under dose-response curve: 2.04
[24]
  area under dose-response curve: 1.27
